The nature of one data set: Whole blood stability. Format: in vitro ADME. Particulars: 1 μM, 37° C. The text has this:
(§1) The breakdown of a prodrug in vivo could occur in one or more of several different compartments including for example, but not limited to blood/plasma, liver, stomach, target tissue (e.g. tumour). The preferred location for optimum formation of the parent drug will depend on the disposition in vivo of the pro-drug and parent and an understanding of the optimum concentrations of each required in the circulation to maximise exposure to the active moiety in the target tissue. The potential for pro-drug molecules to deliver the active parent drug may be assessed in vitro by measuring the breakdown of a pro-drug in the presence of relevant body fluids. For the purpose of gaining a preliminary understanding of the stability of compounds of the invention to enzymatic hydrolysis in two such bodily compartments, compound turnover has been studied following incubation in whole blood and liver homogenate from mice and humans. The data obtained from these studies provide a preliminary understanding of which of the prodrugs are better able to deliver parent compound (i.e. are more rapidly broken down to parent compound) in these compartments. Further studies could also determine stability in other compartments (e.g. in the target tumours by measuring stability in tumour lysates).
For these studies, human whole blood was collected from 3 male healthy volunteers in lithium heparin tubes. The blood was pooled and stored at room temperature for a maximum of 2 hours prior to initiation of incubations. Mouse blood was collected from 70 male mice, strain: Balb/c into lithium heparin tubes and pooled.
(§2) Each incubation consisted of a volume of 1 mL. Test compound dosing solutions were then spiked into each homogenate at a final compound concentration of 1 μM. Incubations were performed in the atmosphere in a shaking water bath at 37° C.
(§3) An aliquot of incubation samples was removed into an equal volume of ice-cold acetonitrile at various time points. Samples (whole blood/homogenate+acetonitrile) were centrifuged and aliquots of the supernatant were analysed by HPLC-MS/MS.
(§4) The compound X (2,4-dihydroxy-5-isopropyl-phenyl)-[5-(4-methyl-piperazin-1-ylmethyl)-1,3-dihydro-isoindol-2-yl]-methanone) and the compounds of Examples 1 to 24 were incubated in both whole blood and liver homogenate by Quotient Bioresearch (Rushden, UK). The percentage remaining of parent compound following incubation in whole blood/liver homogenate from human and mouse are set out in the table below.

The nature of data set [1]: Liver homogenate stability. Format: in vitro ADME. Particulars: 1 μM, 37° C., 120 mins.
Excerpt: as §1
Mouse livers were obtained from 20 male mice, strain: Balb/c from stock animals. Human liver tissue was obtained from 3 individuals sourced from a UK human tissue bank. The livers were stored frozen. The livers were defrosted and then homogenised to form a homogenate of approximately 30% (w/v) in phosphate buffer, 100 mM, pH 7.4 (referred to as ‘buffer’). Homogenates were kept on ice until use.
as §2, §3, §4

Turning to `COCOc1cc(O)c(C(=O)N2Cc3ccc(CN4CCN(C)CC4)cc3C2)cc1C(C)C` [Example 8, [2-Hydroxy-5-isopropyl-4-(methoxymethyloxy)-phenyl]-[5-(4-methyl-piperazin-1-ylmethyl)-1,3-dihydro-isoindol-2-yl]-methanone], in “Whole blood stability” (120 mins), the “Percentage remaining Human blood” value was determined as 114% and the “Percentage remaining Mouse blood” value turned out to be 104%. In data set [1], the “Percentage remaining Human Liver” value came out at 102% and the “Percentage remaining Mouse Liver” value turned out to be 79%.

Turning to `COCOc1cc(OCOC)c(C(C)C)cc1C(=O)N1Cc2ccc(CN3CCN(C)CC3)cc2C1` [Example 9, [5-Isopropyl-2,4-bis-(methoxymethyloxy)-phenyl]-[5-(4-methyl-piperazin-1-ylmethyl)-1,3-dihydro-isoindol-2-yl]-methanone], in “Whole blood stability” (60 mins (footnote *)), the “Percentage remaining Mouse blood” value was found to be 105% *. The “Percentage remaining Human blood” value in the data set “Whole blood stability” (120 mins) worked out at 111%. For the same compound, in data set [1], the “Percentage remaining Human Liver” value worked out at 98% and the “Percentage remaining Mouse Liver” value is recorded as 82%.

As to `CCN(CC)C(=O)Oc1cc(OC(=O)N(CC)CC)c(C(C)C)cc1C(=O)N1Cc2ccc(CN3CCN(C)CC3)cc2C1` [Example 10], in “Whole blood stability” (120 mins), the “Percentage remaining Human blood” value was 108% and the “Percentage remaining Mouse blood” value is reported as 93%. Besides, in data set [1], the “Percentage remaining Human Liver” value is recorded as 56% and the “Percentage remaining Mouse Liver” value was 60%.

On to `CC(C)c1cc(C(=O)N2Cc3ccc(CN4CCN(C)CC4)cc3C2)c(OC(=O)N2CCCC2)cc1OC(=O)N1CCCC1` [Example 12, 2-[2,4-bis-(pyrrolidin-1-ylcarbonyloxy)-5-isopropyl-benzoyl]-5-(4-methyl-piperazin-1-ylmethyl)-1,3-dihydro-isoindole], for which, in the data set “Whole blood stability” (120 mins), the “Percentage remaining Human blood” value is on record as 110% and the “Percentage remaining Mouse blood” value is 37%. Further, in data set [1], the “Percentage remaining Human Liver” value is on record as 43% and the “Percentage remaining Mouse Liver” value was found to be 1%.

For the compound `CC(C)c1cc(C(=O)N2Cc3ccc(CN4CCN(C)CC4)cc3C2)c(OC(=O)N2CCOCC2)cc1OC(=O)N1CCOCC1` [Example 13, 2-[2,4-bis-(morpholin-4-ylcarbonyloxy)-5-isopropyl-benzoyl]-5-(4-methyl-piperazin-1-ylmethyl)-1,3-dihydro-isoindole], in “Whole blood stability” (120 mins), the “Percentage remaining Human blood” value is 76% and the “Percentage remaining Mouse blood” value is listed as 0%. For the same compound, in data set [1], the “Percentage remaining Human Liver” value stood at 0% and the “Percentage remaining Mouse Liver” value was found to be 0%.

For `CCN(CC)C(=O)Oc1cc(O)c(C(C)C)cc1C(=O)N1Cc2ccc(CN3CCN(C)CC3)cc2C1` [Example 14, Diethyl-carbamic acid 5-hydroxy-4-isopropyl-2-[5-(4-methyl-piperazin-1-ylmethyl)-1,3-dihydro-isoindole-2-carbonyl]-phenyl ester], in “Whole blood stability” (120 mins), the “Percentage remaining Human blood” value was 94% and the “Percentage remaining Mouse blood” value worked out at 94%. For the same compound, in data set [1], the “Percentage remaining Human Liver” value was 88% and the “Percentage remaining Mouse Liver” value stood at 89%.

On to `CCN(CC)C(=O)Oc1cc(O)c(C(=O)N2Cc3ccc(CN4CCN(C)CC4)cc3C2)cc1C(C)C` [Example 15, Diethyl-carbamic acid 5-hydroxy-2-isopropyl-4-[5-(4-methyl-piperazin-1-ylmethyl)-1,3-dihydro-isoindole-2-carbonyl]-phenyl ester], for which, in “Whole blood stability” (120 mins), the “Percentage remaining Human blood” value turned out to be 123% and the “Percentage remaining Mouse blood” value is 58%. Moreover, in data set [1], the “Percentage remaining Human Liver” value is given as 35% and the “Percentage remaining Mouse Liver” value was 26%.

With `CC(C)c1cc(C(=O)N2Cc3ccc(CN4CCN(C)CC4)cc3C2)c(OC(=O)N(C)C)cc1O` [Example 16, dimethyl-carbamic acid 5-hydroxy-4-isopropyl-2-[5-(4-methyl-piperazin-1-ylmethyl)-1,3-dihydro-isoindole-2-carbonyl]-phenyl ester], in “Whole blood stability” (120 mins), the “Percentage remaining Human blood” value is 104% and the “Percentage remaining Mouse blood” value was 91%. Besides, in data set [1], the “Percentage remaining Human Liver” value was determined as 73% and the “Percentage remaining Mouse Liver” value worked out at 82%.

As for `CC(C)c1cc(C(=O)N2Cc3ccc(CN4CCN(C)CC4)cc3C2)c(OC(=O)N2CCCC2)cc1O` [Example 18, 2-[2-(pyrrolidin-1-ylcarbonyloxy)-4-hydroxy-5-isopropyl-benzoyl]-5-(4-methyl-piperazin-1-ylmethyl)-1,3-dihydro-isoindole], in the data set “Whole blood stability” (60 mins (footnote *)), the “Percentage remaining Mouse blood” value came to 103% *. Moreover, the “Percentage remaining Human blood” value in “Whole blood stability” (120 mins) is 110%. Moreover, in data set [1], the “Percentage remaining Human Liver” value is reported as 65% and the “Percentage remaining Mouse Liver” value stood at 80%.

In the case of `CC(C)c1cc(C(=O)N2Cc3ccc(CN4CCN(C)CC4)cc3C2)c(O)cc1OC(=O)N1CCCC1` [Example 19, 2-[4-(pyrrolidin-1-ylcarbonyloxy)-2-hydroxy-5-isopropyl-benzoyl]-5-(4-methyl-piperazin-1-ylmethyl)-1,3-dihydro-isoindole], the “Percentage remaining Mouse blood” value in the data set “Whole blood stability” (60 mins (footnote *)) is listed as 79% *. Moreover, the “Percentage remaining Human blood” value in the data set “Whole blood stability” (120 mins) came out at 102%. For the same compound, in data set [1], the “Percentage remaining Human Liver” value amounted to 0% and the “Percentage remaining Mouse Liver” value turned out to be 0%.

As for `CC(C)c1cc(C(=O)N2Cc3ccc(CN4CCN(C)CC4)cc3C2)c(OC(=O)N2CCOCC2)cc1O` [Example 20, 2-[2-(morpholin-4-ylcarbonyloxy)-4-hydroxy-5-isopropyl-benzoyl]-5-(4-methyl-piperazin-1-ylmethyl)-1,3-dihydro-isoindole], in the data set “Whole blood stability” (120 mins), the “Percentage remaining Human blood” value is on record as 97% and the “Percentage remaining Mouse blood” value was 16%. In data set [1], the “Percentage remaining Human Liver” value is given as 23% and the “Percentage remaining Mouse Liver” value is 45%.

Regarding `CC(C)c1cc(C(=O)N2Cc3ccc(CN4CCN(C)CC4)cc3C2)c(O)cc1OC(=O)N1CCOCC1` [Example 21, 2-[4-(morpholin-4-ylcarbonyloxy)-2-hydroxy-5-isopropyl-benzoyl]-5-(4-methyl-piperazin-1-ylmethyl)-1,3-dihydro-isoindole], in “Whole blood stability” (120 mins), the “Percentage remaining Human blood” value was determined as 82% and the “Percentage remaining Mouse blood” value amounted to 0%. Further, in data set [1], the “Percentage remaining Human Liver” value stood at 0% and the “Percentage remaining Mouse Liver” value is 0%.

On to `CC(C)c1cc(C(=O)N2Cc3ccc(CN4CCN(C)CC4)cc3C2)c(OC(=O)OC(C)(C)C)cc1OC(=O)N(C)C` [Example 22, Carbonic acid tert-butyl ester 5-dimethylcarbamoyloxy-4-isopropyl-2-[5-(4-methyl-piperazin-1-ylmethyl)-1,3-dihydro-isoindole-2-carbonyl]-phenyl ester], for which, in “Whole blood stability” (120 mins), the “Percentage remaining Human blood” value was found to be 18% and the “Percentage remaining Mouse blood” value is reported as 0%. In data set [1], the “Percentage remaining Human Liver” value turned out to be 6% and the “Percentage remaining Mouse Liver” value is on record as 0%.

In the case of `CC(C)c1cc(C(=O)N2Cc3ccc(CN4CCN(C)CC4)cc3C2)c(OC(=O)OC(C)(C)C)cc1OC(=O)OC(C)(C)C` [Example 23, Carbonic acid 5-tert-butoxycarbonyloxy-4-isopropyl-2-[5-(4-methyl-piperazin-1-ylmethyl)-1,3-dihydro-isoindole-2-carbonyl]-phenyl ester tert-butyl ester], in “Whole blood stability” (120 mins), the “Percentage remaining Human blood” value was found to be 26% and the “Percentage remaining Mouse blood” value is on record as 0%. Further, in data set [1], the “Percentage remaining Human Liver” value was determined as 1% and the “Percentage remaining Mouse Liver” value was 0%.

The values are drawn from patent US8383619B2, “Pharmaceutical compounds” (Astex Therapeutics Limited, priority 2008, dated 2013).
